The results in this text go back to patent publication US20230337671A1, “DISINFECTANT COMPOSITION” (Helperby Therapeutics Limited, priority 2020, published 2023).

SMILES strings stand for the structures.

Holding throughout (assay type): physicochemical
Data set [1] is described as follows: Preparation of 0.03% w/w HT61 solution in demineralised water, UV-Vis check. Particulars: 0.075 g HT61 solid added to 250 ml demineralised water (0.03% w/w). As for the experimental part:
(§1) To support the use of a low concentration of HT61 acting as an emollient in an aqueous disinfectant composition, the surface tension, contact angle and hydrophilic lipophilic balance (HLB) of this compound were determined. • Sample Preparation: A 0.03% w/w solution was required for both the contact angle and surface tension measurements. This solution was prepared by adding 0.075 g of the HT61 solid (obtained according to the method set out in WO 2007/054693 A1 discussed above) to 250 ml of demineralised water. Some solid remained in solution so analysis was carried out using UV-Vis Spectroscopy. […] The surface tension of the sample was measured using a DataPhysics DCAT 9 tensionmeter and the Wilhelmy plate method. The measurement was made three times, with the plate being cleaned between each measurement. • The contact angle was measured on the surface of parafilm. A sample of parafilm was wrapped around a glass slide and the protective film removed. The contact angle of the liquid with the parafilm was measured by placing a small (e.g. 2 μl) drop of test liquid (the sample) on the test surface. The profile of the drop was measured as a function of time using a DataPhysics OCA 35. Each liquid was measured three times. The contact angles were determined 2 s, 12 s and 30 s after the drop first touched the surface. […]

Data set [2] is described as follows: Surface tension, Wilhelmy plate method (DataPhysics DCAT 9 tensionmeter). Conditions: 0.03% w/w HT61 in demineralised water, assumed saturated; measured three times. The method, then: as §1
Data set [3] can be described thus: Contact angle of a drop on the surface of parafilm (DataPhysics OCA 35). Particulars: 0.03% w/w solution. As for the experimental part: To support the use of a low concentration of HT61 acting as an emollient in an aqueous disinfectant composition, the surface tension, contact angle and hydrophilic lipophilic balance (HLB) of this compound were determined. • Sample Preparation: A 0.03% w/w solution was required for both the contact angle and surface tension measurements. This solution was prepared by adding 0.075 g of the HT61 solid (obtained according to the method set out in WO 2007/054693 A1 discussed above) to 250 ml of demineralised water. Some solid remained in solution so analysis was carried out using UV-Vis Spectroscopy. […] The surface tension of the sample was measured using a DataPhysics DCAT 9 tensionmeter and the Wilhelmy plate method. The measurement was made three times, with the plate being cleaned between each measurement. • The contact angle was measured on the surface of parafilm. A sample of parafilm was wrapped around a glass slide and the protective film removed. The contact angle of the liquid with the parafilm was measured by placing a small (e.g. 2 μl) drop of test liquid (the sample) on the test surface. The profile of the drop was measured as a function of time using a DataPhysics OCA 35. Each liquid was measured three times. The contact angles were determined 2 s, 12 s and 30 s after the drop first touched the surface. For reference, the contact angle of demineralised water was also measured. • The HLB Value was obtained using […] mathematical method (Griffin, W.C., Calculation of HLB Values of Non-Ionic Surfactants, Journal of the Society of Cosmetic Chemists, 1954, 5(4), 249-56): • [formula] • where Mh is the molecular weight of hydrophilic groups (44 gmol^-1) and M is the molecular weight of the whole molecule (380 gmol^-1). • The factor 20 is a scaling factor. Thus a scale of 1 to 20 is generally obtained.

Take `Cc1nc2ccc(Oc3ccccc3)cc2c2c1CCN2CCc1ccccc1` [HT61, 4-methyl-8-phenoxy-1-(2-phenylethyl)-2,3-dihydro-1H-pyrrolo[3,2-c]quinoline]: the “Dissolution of HT61 solid in demineralised water” value in data set [1] was “the solution was saturated”. Further, the “Average Surface Tension” value in data set [2] worked out at 55.7 mN/m. Further, in data set [3] (2 s after drop touched surface), the “Average Contact Angle @2s” value came to 98. In addition, in data set [3] (12 s after drop touched surface), the “Average Contact Angle @12s” value was 96. In addition, the “Average Contact Angle @30s” value in data set [3] (30 s after drop touched surface) is listed as 96.
